For orientation: inhibition means the drop in the measured response relative to a control, in per cent. As a reminder, the IC50 is the concentration at which inhibition is half-maximal. As usually defined, the CC50 is the concentration that lowers cell viability or growth by half.

SMILES strings stand for the structures. Calls of active or inactive are those of the source. The rule behind the calls is not given here. A value given as a limit tells only on which side of the number the result lay.

The test system of series [1] is Monocyte. Description: Anti-osteoclastogensis in C57BL/6 mouse bone marrow monocytes assessed as inhibition of RANKL/M-CSF induced osteoclastogenesis at 10 uM incubated for 5 days relative to control. The conditions noted are these: C57BL/6, Monocyte, 120 h, time 5 day. It counts as functional.
For series [2], the system named is Monocyte. The experiment in a line: Anti-osteoclastogensis in C57BL/6 mouse bone marrow monocytes assessed as inhibition of RANKL/M-CSF induced osteoclastogenesis at 10 uM incubated for 5 days. It counts as functional, cell-based. Conditions: C57BL/6, Monocyte, 120 h.
Series [3] can be described thus: Cytotoxicity against C57BL/6 mouse bone marrow monocytes assessed as reduction in cell viability incubated for 48 hrs by MTT assay. It counts as toxicity, cell-based, Monocyte. In general terms: Formazan colour is commonly taken as a measure of viable cells.
Series [4] in a line: Selectivity index, ratio of CC50 for cytotoxicity against C57BL/6 mouse bone marrow monocytes to IC50 for anti-osteoclastogensis in C57BL/6 mouse bone marrow monocytes assessed as inhibition of RANKL/M-CSF induced osteoclastogenesis. It counts as cell-based, Monocyte. Conditions: read-out: Ratio CC50/IC50.
Series [5] concerns RAW264.7. Description: Inhibition of RANKL-induced MAPK signaling in mouse RAW264.7 cells assessed as inhibition of ERK1/2 phosphorylation incubated for 60 mins in presence of RANKL by Western blot analysis. Format: cell-based. Conditions: dose 5-10 µM. For orientation: In western blotting, separated proteins are transferred to a membrane and probed.
Series [6] deals with RAW264.7. Description: Inhibition of RANKL-induced MAPK signaling in mouse RAW264.7 cells assessed as inhibition of JNK1/2 phosphorylation incubated for 60 mins in presence of RANKL by Western blot analysis. The conditions noted are these: dose 5-10 µM. Format: cell-based.
Series [7] deals with RAW264.7. Description: Inhibition of RANKL-induced MAPK signaling in mouse RAW264.7 cells assessed as inhibition of p38 phosphorylation incubated for 60 mins in presence of RANKL by Western blot analysis. Conditions: dose 5-10 µM. Format: cell-based.
Series [8] relates to RAW264.7. Description: Inhibition of RANKL-induced NFkappaB signaling in mouse RAW264.7 cells assessed as inhibition of NFkappab nuclear translocation at 10 uM incubated for 60 mins in presence of RANKL by Western blot analysis. Format: cell-based.

Consider `C=C[C@@]1(C)CC(=O)O[C@H]1C1=CC[C@H]2C(C)(C)CC[C@H](O)[C@]2(C)C1=O`, for which, in the series on Monocyte [1], the inhibition at 10 µM turned out to be 88.4%. Further, the IC50 in the series on Monocyte [2] is 3 µM. For the same molecule, in series [3], the 50% cytotoxic concentration (CC50) at 48 h is more than 30 µM. In series [4], the selectivity ratio is more than 10. The inhibition entry in the series on RAW264.7 [5], in the series on RAW264.7 [6] and in the series with RAW264.7 [7] was “Dose-Dependent Effect” in each case. Moreover, in the series with RAW264.7 [8], the inhibition entry is “Active”.
For `C=C1CC[C@@H]2OC(=O)C=C(C[C@]3(C)CC(=O)O[C@H]3CO)C(=O)[C@]2(C)[C@@H]1C`, the inhibition at 10 µM in the series with Monocyte [1] stood at 75%. Also, the IC50 in the series with Monocyte [2] came out at 4.2 µM. The CC50 at 48 h in series [3] was more than 30 µM. The selectivity ratio in series [4] is more than 7. In addition, the inhibition entry in the series on RAW264.7 [5], with RAW264.7 [6] and in the series on RAW264.7 [7] was “Dose-Dependent Effect” in each case. The inhibition entry in the series with RAW264.7 [8] is “Active”.

(Values after ChEMBL document CHEMBL5357006, “Pestanoid A, a Rearranged Pimarane Diterpenoid Osteoclastogenesis Inhibitor from a Marine Mesophotic Zone Chalinidae Sponge-Associated Fungus, Pestalotiopsis sp. NBUF145” (J Nat Prod, 2024).)
